Reference: ChEMBL document CHEMBL3808314, “Discovery and Optimization of Potent, Selective, and in Vivo Efficacious 2-Aryl Benzimidazole BCATm Inhibitors” (ACS Med Chem Lett, 2016)
pIC50: −log10 of the molar value. Activity calls are given as the source filed them. The calls are words filed in the database; no cut-off is given here.

What was measured:
[1] = Cmax in mouse at 5 mg/kg, po; format: ADME, organism-based; parameters: dose 5 mg/kg, route oral; settings: in vivo
[2] = Volume of distribution at steady state in mouse at 1 mg/kg, iv; format: ADME, organism-based; settings: in vivo, read-out: Vdss
[3] = Plasma protein binding in mouse; format: ADME, cell-free; settings: read-out: PPB (converted)
Mus musculus [4] = assay: Increase in valine level in po dosed C57Black/6J mouse serum administered 5 hrs post fasting state followed by refeeding of amino acid mixture at 6 hrs post dose measured after 1 hr by HPLC method relative to vehicle control; format: functional, organism-based
[5] = Half life of compound in mouse at 1 mg/kg, iv; format: ADME, organism-based; settings: in vivo
Mus musculus [6] = assay: Increase in luecine level in C57Black/6J mouse serum at 300 mg/kg, po administered 5 hrs post fasting state followed by refeeding of amino acid mixture at 30 mins post dose measured after 1 hr by HPLC method; format: functional, organism-based
Mus musculus [7] = assay: Increase in isoluecine level in C57Black/6J mouse serum at 300 mg/kg, po administered 5 hrs post fasting state followed by refeeding of amino acid mixture at 30 mins post dose measured after 1 hr by HPLC method; format: functional, organism-based
Mus musculus [8] = assay: Increase in isoluecine level in po dosed C57Black/6J mouse serum administered 5 hrs post fasting state followed by refeeding of amino acid mixture at 6 hrs post dose measured after 1 hr by HPLC method relative to vehicle control; format: functional, organism-based
Mus musculus [9] = assay: Increase in valine level in C57Black/6J mouse serum at 300 mg/kg, po administered 5 hrs post fasting state followed by refeeding of amino acid mixture at 30 mins post dose measured after 1 hr by HPLC method; format: functional, organism-based
[10] = molecular target: T1, Branched-chain-amino-acid aminotransferase, cytosolic (Homo sapiens, UniProt P54687); assay: Inhibition of BCATc (unknown origin)
T1 sequence (P54687 whole entry): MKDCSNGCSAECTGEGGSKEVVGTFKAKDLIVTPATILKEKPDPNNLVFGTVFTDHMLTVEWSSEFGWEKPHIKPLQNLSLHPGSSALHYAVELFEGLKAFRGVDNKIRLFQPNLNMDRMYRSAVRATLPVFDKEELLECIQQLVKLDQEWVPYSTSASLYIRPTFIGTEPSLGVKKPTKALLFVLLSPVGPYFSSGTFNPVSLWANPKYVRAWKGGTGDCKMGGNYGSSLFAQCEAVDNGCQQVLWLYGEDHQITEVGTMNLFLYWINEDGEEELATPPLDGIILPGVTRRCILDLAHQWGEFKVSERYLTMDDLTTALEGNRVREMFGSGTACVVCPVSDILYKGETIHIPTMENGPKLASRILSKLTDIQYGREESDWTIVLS

[11] = AUC (0 to infinity) in mouse at 5 mg/kg, po; format: ADME, organism-based; parameters: dose 5 mg/kg, route oral, time infinity; settings: in vivo
[12] = Oral bioavailability in mouse at 5 mg/kg; format: ADME, organism-based; settings: in vivo
Mus musculus [13] = assay: Increase in luecine level in po dosed C57Black/6J mouse serum administered 5 hrs post fasting state followed by refeeding of amino acid mixture at 6 hrs post dose measured after 1 hr by HPLC method relative to vehicle control; format: functional, organism-based
[14] = Clearance in mouse blood at 1 mg/kg, iv; format: ADME, organism-based

| Structure (SMILES) | Cmax [1] [ng/mL] | Vd [2] [L/kg] | fraction unbound [3] | Activity (Mus musculus [4]) | half-life [5] [min] | Activity (Mus musculus [6]) | Activity (Mus musculus [7]) | Activity (Mus musculus [8]) | Activity (Mus musculus [9]) | pIC50 [10] | AUC(0-inf) [11] [ng·h/mL] | bioavailability [12] [%] | Activity (Mus musculus [13]) | clearance [14] [mL/min/kg] |
| --- | --- | --- | --- | --- | --- | --- | --- | --- | --- | --- | --- | --- | --- | --- |
| CNC(=O)c1ccc2c(c1)nc(-c1ccccn1)n2[C@@H]1CCC[C@H](NC(=O)c2ccc(Br)s2)C1 (relative stereo) | 1650 | 0.9 | 0.029 | Dose-dependent effect | 222 | Active | Active | Dose-dependent effect | Active | 5.40 | 5810 | 28 | Dose-dependent effect | 4 |
| CNC(=O)c1ccc2c(c1)nc(-c1ccccc1SC)n2[C@@H]1CCC[C@H](NC(=O)c2ccc(Br)s2)C1 (relative stereo) | 129 | 1.3 | 0.005 |  | 84 |  |  |  |  | 5.90 | 338 | 10 |  | 23 |
